# From patent US8394963B2, “Process for the preparation of esomeprazole magnesium dihydrate” (Cipla Limited, priority 2007, dated 2013)
# Experiment: Solubility checked using 0.1 g of the sample at 25-30° C.
# Format: physicochemical
# Settings: for Solubility (volume of solvent): 0.1 g of the sample at 25-30° C.
# From the text: Polymorphs of a compound differ in physical properties such as crystal structure, dissolution and particle size.
Solubility (volume of solvent) (Acetone) [mL],Solubility (volume of solvent) (Ethyl acetate) [mL],Solubility (volume of solvent) (Isopropyl acetate) [mL],Solubility (volume of solvent) (Toluene) [mL],"Solubility, comparison of the polymorphic forms (Form II compared with Form I of thio intermediate (compound III))",SMILES
2.0,4.6,10.0,8.4,–,"COc1ccc2[nH]c(SCc3ncc(C)c(OC)c3C)nc2c1 [Form I, 5-methoxy-2-[[(4-methoxy-3,5-dimethyl-2-pyridinyl)-methyl]thio]-1H-benzimidazole, reference compound]"
4.6,12.0,13.0,15.0,less soluble than Form I,"COc1ccc2[nH]c(SCc3ncc(C)c(OC)c3C)nc2c1 [Form II, 5-methoxy-2-[[(4-methoxy-3,5-dimethyl-2-pyridinyl)-methyl]thio]-1H-benzimidazole]"
